Laboratory results: ChEMBL document CHEMBL2034891, “Discovery, design and synthesis of Y-shaped peroxisome proliferator-activated receptor δ agonists as potent anti-obesity agents in vivo” (Eur J Med Chem, 2012)
Activity calls are given as the source filed them. The rule behind the calls is not given here.

What was measured:
[1] = target: T1, Peroxisome proliferator-activated receptor gamma (Homo sapiens, UniProt P37231); test: Transactivation activity at human PPARgamma expressed in african green monkey CV1 cells after 24 hrs by luciferase reporter gene assay; assay type: cell-based, CV-1
T1 sequence (P37231 whole entry): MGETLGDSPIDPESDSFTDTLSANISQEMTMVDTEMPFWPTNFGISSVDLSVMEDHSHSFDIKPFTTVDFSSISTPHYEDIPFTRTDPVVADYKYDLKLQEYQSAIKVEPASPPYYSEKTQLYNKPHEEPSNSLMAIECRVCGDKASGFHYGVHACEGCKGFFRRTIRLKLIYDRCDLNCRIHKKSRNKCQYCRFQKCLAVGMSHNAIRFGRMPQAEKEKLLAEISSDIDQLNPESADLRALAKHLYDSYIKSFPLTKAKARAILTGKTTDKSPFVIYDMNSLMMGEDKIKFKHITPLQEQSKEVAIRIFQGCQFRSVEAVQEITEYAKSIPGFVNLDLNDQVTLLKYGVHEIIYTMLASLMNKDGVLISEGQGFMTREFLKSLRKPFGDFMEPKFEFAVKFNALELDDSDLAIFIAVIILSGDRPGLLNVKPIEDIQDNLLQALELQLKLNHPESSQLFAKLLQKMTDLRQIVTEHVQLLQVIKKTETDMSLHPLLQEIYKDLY

[2] = target: T2, Peroxisome proliferator-activated receptor alpha (Homo sapiens, UniProt Q07869); test: Transactivation activity at human PPARalpha expressed in african green monkey CV1 cells after 24 hrs by luciferase reporter gene assay; assay type: cell-based, CV-1
T2 sequence (Q07869 whole entry): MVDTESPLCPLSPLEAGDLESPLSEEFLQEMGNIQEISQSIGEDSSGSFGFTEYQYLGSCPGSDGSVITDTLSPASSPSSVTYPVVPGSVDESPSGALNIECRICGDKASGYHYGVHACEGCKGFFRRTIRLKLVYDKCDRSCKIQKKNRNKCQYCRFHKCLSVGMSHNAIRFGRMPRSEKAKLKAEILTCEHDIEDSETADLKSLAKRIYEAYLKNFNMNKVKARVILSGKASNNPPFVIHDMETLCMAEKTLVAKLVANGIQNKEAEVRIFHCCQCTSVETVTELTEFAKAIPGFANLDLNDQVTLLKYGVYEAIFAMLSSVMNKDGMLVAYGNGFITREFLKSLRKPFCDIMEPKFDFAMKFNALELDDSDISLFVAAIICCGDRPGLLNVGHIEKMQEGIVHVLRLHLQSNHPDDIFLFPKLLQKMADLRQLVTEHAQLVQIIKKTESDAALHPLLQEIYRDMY

[3] = target: T3, Peroxisome proliferator-activated receptor delta (Homo sapiens, UniProt Q03181); test: Transactivation activity at human PPARdelta expressed in african green monkey CV1 cells after 24 hrs by luciferase reporter gene assay; assay type: cell-based, CV-1
T3 sequence (Q03181 whole entry): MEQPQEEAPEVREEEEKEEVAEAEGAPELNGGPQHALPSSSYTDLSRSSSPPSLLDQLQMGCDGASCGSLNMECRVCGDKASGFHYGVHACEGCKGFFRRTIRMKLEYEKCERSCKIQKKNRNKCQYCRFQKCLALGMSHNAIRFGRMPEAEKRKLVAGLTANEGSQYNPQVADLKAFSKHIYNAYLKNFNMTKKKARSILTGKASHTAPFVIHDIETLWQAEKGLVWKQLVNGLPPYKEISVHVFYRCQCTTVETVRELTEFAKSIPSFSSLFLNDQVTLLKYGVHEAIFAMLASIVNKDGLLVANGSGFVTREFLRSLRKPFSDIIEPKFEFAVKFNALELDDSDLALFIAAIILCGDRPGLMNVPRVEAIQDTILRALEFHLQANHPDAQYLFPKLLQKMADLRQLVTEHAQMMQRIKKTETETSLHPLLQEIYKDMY

[4] = organism: Homo sapiens; test: Selectivity ratio of EC50 for human PPARalpha to EC50 for human PPARdelta
[5] = system: Mus musculus; test: Antiobesity activity in high-fat diet fed C57BL/6 mouse assessed as decrease in body weight gain at 10 mg/kg, po QD relative to control; assay type: functional; parameters: scale not given: the % may be the effect or the level left
[6] = system: Mus musculus; test: Antiobesity activity in high-fat diet fed C57BL/6 mouse assessed as decrease in lipid accumulation on white adipose tissue at 10 mg/kg, po QD hematoxylin and eosin staining-based histological analysis; assay type: functional, organism-based; parameters: dose 10 mg/kg
[7] = system: Mus musculus; test: AUMC in ICR mouse at 1 mg/kg, iv; assay type: ADME, organism-based; parameters: dose 1 mg/kg, route intravenous; conditions: in vivo
[8] = system: Mus musculus; test: Antiobesity activity in high-fat diet fed C57BL/6 mouse assessed as absence of fatty liver at 10 mg/kg, po QD hematoxylin and eosin staining-based histological analysis; assay type: functional, organism-based; parameters: dose 10 mg/kg
[9] = Mean residence time in ICR mouse at 10 mg/kg, po; assay type: ADME, organism-based; parameters: dose 10 mg/kg, route oral; conditions: in vivo
[10] = Terminal half life in ICR mouse at 1 mg/kg, iv; assay type: ADME, organism-based; parameters: dose 1 mg/kg, route intravenous; conditions: in vivo, read-out: beta t1/2 (converted)
[11] = system: Mus musculus; test: Toxicity in high-fat diet fed C57BL/6 mouse assessed as decrease in food intake at 10 mg/kg, po QD relative to control; assay type: organism-based; parameters: dose 10 mg/kg, route oral; conditions: in vivo
[12] = Tmax in ICR mouse at 1 mg/kg, iv; assay type: ADME, organism-based; parameters: dose 1 mg/kg, route intravenous; conditions: in vivo
[13] = system: Mus musculus; test: Antiobesity activity in high-fat diet fed C57BL/6 mouse assessed as decrease in lipid accumulation on brown adipose tissue at 10 mg/kg, po QD hematoxylin and eosin staining-based histological analysis; assay type: functional, organism-based; parameters: dose 10 mg/kg
[14] = Terminal half life in ICR mouse at 10 mg/kg, po; assay type: ADME, organism-based; parameters: dose 10 mg/kg, route oral; conditions: in vivo, read-out: beta t1/2 (converted)
[15] = Volume of distribution at steady state in ICR mouse at 1 mg/kg, iv; assay type: ADME, organism-based; parameters: dose 1 mg/kg, route intravenous; conditions: in vivo, read-out: Vdss
[16] = system: Mus musculus; test: Antiobesity activity in high-fat diet fed C57BL/6 mouse assessed as decrease in serum free fatty acid level at 10 mg/kg, po QD relative to vehicle-treated control; assay type: functional; parameters: scale not given: the % may be the effect or the level left
[17] = system: Mus musculus; test: Dose normalized AUC in ICR mouse at 10 mg/kg, po; assay type: ADME, organism-based; parameters: dose 10 mg/kg, route oral; conditions: in vivo
[18] = AUC in ICR mouse at 10 mg/kg, po; assay type: ADME, organism-based; parameters: dose 10 mg/kg, route oral; conditions: plasma
[19] = AUC in ICR mouse at 1 mg/kg, iv; assay type: ADME, organism-based; parameters: dose 1 mg/kg, route intravenous; conditions: plasma
[20] = Clearance in ICR mouse at 10 mg/kg, po; assay type: ADME, organism-based; parameters: dose 10 mg/kg, route oral; conditions: in vivo
[21] = target: T3, Peroxisome proliferator-activated receptor delta; test: Binding affinity at human GST-tagged PPARdelta ligand binding domain after 1 hr by time-resolved FRET analysis
[22] = Oral bioavailability in ICR mouse at 10 mg/kg; assay type: ADME, organism-based; conditions: in vivo
[23] = Cmax in ICR mouse at 10 mg/kg, po; assay type: ADME, organism-based; parameters: dose 10 mg/kg, route oral; conditions: in vivo
[24] = Clearance in ICR mouse at 1 mg/kg, iv; assay type: ADME, organism-based; parameters: dose 1 mg/kg, route intravenous; conditions: in vivo
[25] = system: Mus musculus; test: AUMC in ICR mouse at 10 mg/kg, po; assay type: ADME, organism-based; parameters: dose 10 mg/kg, route oral; conditions: in vivo
[26] = system: Mus musculus; test: Antiobesity activity in high-fat diet fed C57BL/6 mouse assessed as decrease in serum triglyceride level at 10 mg/kg, po QD relative to vehicle-treated control; assay type: functional; parameters: scale not given: the % may be the effect or the level left
[27] = Cmax in ICR mouse at 1 mg/kg, iv; assay type: ADME, organism-based; parameters: dose 1 mg/kg, route intravenous; conditions: in vivo
[28] = system: Mus musculus; test: Dose normalized AUC in ICR mouse at 1 mg/kg, iv; assay type: ADME, organism-based; parameters: dose 1 mg/kg, route intravenous; conditions: in vivo
[29] = Mean residence time in ICR mouse at 1 mg/kg, iv; assay type: ADME, organism-based; parameters: dose 1 mg/kg, route intravenous; conditions: in vivo
[30] = system: Mus musculus; test: Volume of distribution at steady state in ICR mouse at 10 mg/kg, po; assay type: ADME, organism-based; parameters: dose 10 mg/kg, route oral; conditions: in vivo
[31] = Tmax in ICR mouse at 10 mg/kg, po; assay type: ADME, organism-based; parameters: dose 10 mg/kg, route oral; conditions: in vivo
[32] = system: Mus musculus; test: Antiobesity activity in high-fat diet fed C57BL/6 mouse assessed as increase in body weight at 10 mg/kg, po QD measured after 78 days (reference value: 102%); assay type: functional

## Cc1cc(SC(CCCCCCCCCCc2ccccc2)c2sc(-c3ccc(C(F)(F)F)cc3)nc2C)ccc1OCC(=O)O (stereo not given)
[1]
  EC50: > 10 µM
[2]
  EC50: > 10 µM

## Cc1cc(SC(Cc2cc(F)c(F)c(F)c2)c2sc(-c3ccc(C(F)(F)F)cc3)nc2C)ccc1OCC(=O)O (stereo not given)
[3]
  EC50: 0.0067 µM
[1]
  EC50: > 10 µM
[2]
  EC50: > 10 µM

## Cc1cc(SC(Cc2c(Cl)cccc2Cl)c2sc(-c3ccc(C(F)(F)F)cc3)nc2C)ccc1OCC(=O)O (stereo not given)
[3]
  EC50: 0.0028 µM
[1]
  EC50: > 10 µM
[4]
  Ratio EC50: 10000
[2]
  EC50: > 10 µM

## Cc1cc(SC(CCCCCc2ccccc2)c2sc(-c3ccc(C(F)(F)F)cc3)nc2C)ccc1OCC(=O)O (stereo not given)
[1]
  EC50: > 10 µM
[2]
  EC50: > 10 µM

## Cc1cc(SC(CCc2ccccc2)c2sc(-c3ccc(C(F)(F)F)cc3)nc2C)ccc1OCC(=O)O (stereo not given)
[3]
  EC50: 0.0026 µM
[1]
  EC50: > 10 µM
[2]
  EC50: > 10 µM

## Cc1cc(SC(Cc2ccc(F)cc2F)c2sc(-c3ccc(C(F)(F)F)cc3)nc2C)ccc1OCC(=O)O (stereo not given)
[3]
  EC50: 0.0046 µM
[1]
  EC50: > 10 µM
[4]
  Ratio EC50: 10000
[2]
  EC50: > 10 µM

## Cc1cc(SC(Cc2c(F)cccc2F)c2sc(-c3ccc(C(F)(F)F)cc3)nc2C)ccc1OCC(=O)O (stereo not given)
[3]
  EC50: 0.0021 µM
[1]
  EC50: > 10 µM
[4]
  Ratio EC50: 10000
[5]
  Activity: 35%
[2]
  EC50: > 10 µM

## Cc1cc(SC(C)c2sc(-c3ccc(C(F)(F)F)cc3)nc2C)ccc1OCC(=O)O (stereo not given)
[3]
  EC50: 0.0018 µM
[1]
  EC50: > 10 µM
[2]
  EC50: 0.136 µM

## Cc1cc(SC(Cc2ccc([N+](=O)[O-])cc2)c2sc(-c3ccc(C(F)(F)F)cc3)nc2C)ccc1OCC(=O)O (stereo not given)
[3]
  EC50: 0.06 µM
[1]
  EC50: > 10 µM
[2]
  EC50: > 10 µM

## Cc1cc(SC(Cc2c3ccccc3cc3ccccc23)c2sc(-c3ccc(C(F)(F)F)cc3)nc2C)ccc1OCC(=O)O (stereo not given)
[1]
  EC50: > 10 µM
[2]
  EC50: > 10 µM

## Cc1cc(SC(CC2CC2)c2sc(-c3ccc(C(F)(F)F)cc3)nc2C)ccc1OCC(=O)O (stereo not given)
[3]
  EC50: 0.0011 µM
[1]
  EC50: > 10 µM
[2]
  EC50: 0.861 µM

## Cc1cc(SC(Cc2ccccc2)c2sc(-c3ccc(C(F)(F)F)cc3)nc2C)ccc1OCC(=O)O (stereo not given)
[3]
  EC50: 0.0016 µM
[6]
  Activity: Active
[7]
  AUMC: 243 hr.hr.ug/ml
[8]
  Activity: Active
[1]
  EC50: > 10 µM
[9]
  MRT: 9.32 h
[10]
  half-life: 3.69 h
[11]
  Activity: Non-toxic
[4]
  Ratio EC50: 10000
[12]
  Tmax: 0.33 h
[13]
  Activity: Active
[14]
  half-life: 5.27 h
[15]
  Vd: 0.131 L/kg
[16]
  Activity: 26%
[17]
  AUC/dose: 35.7 kg·µg·h/mL/mg
[18]
  AUC: 357 µg·h/mL
[19]
  AUC: 40.6 µg·h/mL
[20]
  CL/F: 0.0282 L/h/kg
[21]
  EC50: 0.013 µM
[22]
  bioavailability: 88%
[23]
  Cmax: 37.9 µg/mL
[2]
  EC50: > 10 µM
[24]
  clearance: 0.0246 L/h/kg
[25]
  AUMC: 3340 hr.hr.ug/ml
[26]
  Activity: 29%
[27]
  Cmax: 8.98 µg/mL
[28]
  AUC/dose: 40.6 kg·µg·h/mL/mg
[29]
  MRT: 5.98 h
[30]
  Vdss: 0.212 L/kg
[31]
  Tmax: 2.75 h
[32]
  Activity: 60%

## Cc1cc(SC(Cc2c(F)cccc2C(F)(F)F)c2sc(-c3ccc(C(F)(F)F)cc3)nc2C)ccc1OCC(=O)O (stereo not given)
[3]
  EC50: 0.0012 µM
[1]
  EC50: > 10 µM
[4]
  Ratio EC50: 10000
[5]
  Activity: 24%
[2]
  EC50: > 10 µM
